Data from patent US7192942B2, “Process for production of crystals of 11μ-benzaldoxim-estra-4,9-diene derivatives, crystals obtained thereby and pharmaceutical preparations containing them” (Schering AG, priority 2002, dated 2007).

Key:
[1] = Active ingredient release (dissolution) of 1 mg capsules and tablets; format: physicochemical; conditions: 0.3% SDS in water, paddle, 100 rpm
Description: The release values were compared in a test medium, which comprises 0.3% SDS in water, with paddle stirrIng, 100 rpm.
Active Ingredient Release:
Active ingredient release measured in 1000 mL water with 0.3% sodium dodecyl sulfate, 100 rpm
Content Determination by HPLC with external calibration
Column: LiChrosphere 5μ RP-18 encapped, 150×3 mm
Eluent: acetonitrile/water=45/55

[2] = in comparison to RU 486 (mifeprison); cited from earlier work
[3] = biological target: T1, progesterone receptor (Homo sapiens, UniProt P06401); conditions: in comparison to RU 486; cited from earlier work
T1 sequence (P06401 1-933): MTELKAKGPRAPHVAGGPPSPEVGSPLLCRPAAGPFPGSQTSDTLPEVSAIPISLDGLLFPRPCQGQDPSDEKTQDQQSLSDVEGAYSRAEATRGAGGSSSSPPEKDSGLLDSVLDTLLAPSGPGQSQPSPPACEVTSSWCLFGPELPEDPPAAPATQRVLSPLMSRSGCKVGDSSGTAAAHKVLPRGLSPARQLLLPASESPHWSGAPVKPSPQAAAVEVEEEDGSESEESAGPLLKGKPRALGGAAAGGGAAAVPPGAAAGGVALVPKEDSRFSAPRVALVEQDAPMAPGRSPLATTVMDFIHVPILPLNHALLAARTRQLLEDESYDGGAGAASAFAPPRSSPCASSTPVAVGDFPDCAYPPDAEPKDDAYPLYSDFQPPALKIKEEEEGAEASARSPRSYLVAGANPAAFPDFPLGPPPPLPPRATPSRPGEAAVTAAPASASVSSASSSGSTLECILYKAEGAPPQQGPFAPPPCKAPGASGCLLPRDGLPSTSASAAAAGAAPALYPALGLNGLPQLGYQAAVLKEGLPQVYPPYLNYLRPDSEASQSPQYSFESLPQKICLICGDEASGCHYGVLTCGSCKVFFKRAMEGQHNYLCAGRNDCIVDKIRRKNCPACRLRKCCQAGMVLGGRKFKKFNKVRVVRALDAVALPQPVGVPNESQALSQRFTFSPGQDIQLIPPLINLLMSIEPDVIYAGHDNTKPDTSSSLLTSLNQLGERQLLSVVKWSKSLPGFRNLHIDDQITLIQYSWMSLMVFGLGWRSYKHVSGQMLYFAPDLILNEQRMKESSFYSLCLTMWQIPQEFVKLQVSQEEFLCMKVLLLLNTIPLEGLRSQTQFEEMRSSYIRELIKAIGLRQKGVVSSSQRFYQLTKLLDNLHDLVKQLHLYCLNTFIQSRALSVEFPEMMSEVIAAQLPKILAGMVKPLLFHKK

[4] = biological target: T2, progesterone receptor (PR) (Homo sapiens, UniProt P06401); conditions: cited from earlier work
T2 sequence (P06401 1-933): T1 sequence (P06401 1-933)

[5] = Stability of medicinal preparations under ICH conditions; format: physicochemical; conditions: 40° C., 70% relative humidity; decomposition of carbamate to nitrile
Excerpt: The carbamate functional group of the above-mentioned 11β-benz-aldoxim-estra-4,9-diene derivative decomposes to form a nitrile by splitting off ethylamine and CO2.

[6] = 1 mg capsule, microcrystalline J956, particle diameter X50 3.4 μm, X100 25 μm
[7] = 1 mg capsule, microcrystalline J956, particle diameter X50 5.2 μm, X100 30 μm
[8] = 1 mg capsule, microcrystalline J956, particle diameter X50 6.6 μm, X100 43 μm
[9] = 1 mg capsule, microcrystalline J956, particle diameter X50 8.7 μm, X100 43 μm
[10] = 1 mg capsule, microcrystalline J956, particle diameter X50 14.1 μm, X100 87 μm
[11] = 1 mg tablet, microcrystalline J956, particle diameter X50 10.6 μm, X100 73 μm
[12] = 1 mg capsule with micronized effective ingredient J956
[13] = 1 mg tablet with micronized effective ingredient J956

CCNC(=O)ON=Cc1ccc(C2CC3(C)C(CCC3(COC)OC)C3CCC4=CC(=O)CCC4=C23)cc1 (stereo not drawn) [J956, 11β-{4-[(ethylamino-carbonyl)oximinomethyl]phenyl}-17β-methoxy-17α-methoxymethyl-estra-4,9-dien-3-one]
RELEASE in % 0 min [1, 6]: 0%
RELEASE in % 10 min [1, 6]: 90.7%
RELEASE in % 20 min [1, 6]: 97.3%
RELEASE in % 30 min [1, 6]: 98.1%
RELEASE in % 45 min [1, 6]: 99.9%
RELEASE in % 0 min [1, 7]: 0%
RELEASE in % 10 min [1, 7]: 89.8%
RELEASE in % 20 min [1, 7]: 93.5%
RELEASE in % 30 min [1, 7]: 93.4%
RELEASE in % 45 min [1, 7]: 95.6%
RELEASE in % 0 min [1, 8]: 0%
RELEASE in % 10 min [1, 8]: 93.2%
RELEASE in % 20 min [1, 8]: 95.9%
RELEASE in % 30 min [1, 8]: 96.7%
RELEASE in % 45 min [1, 8]: 96.8%
RELEASE in % 0 min [1, 9]: 0%
RELEASE in % 10 min [1, 9]: 93.5%
RELEASE in % 20 min [1, 9]: 96.7%
RELEASE in % 30 min [1, 9]: 98.5%
RELEASE in % 45 min [1, 9]: 99.7%
RELEASE in % 0 min [1, 10]: 0%
RELEASE in % 10 min [1, 10]: 90.2%
RELEASE in % 20 min [1, 10]: 95.3%
RELEASE in % 30 min [1, 10]: 96.0%
RELEASE in % 45 min [1, 10]: 96.3%
RELEASE in % 0 min [1, 11]: 0%
RELEASE in % 10 min [1, 11]: 73.7%
RELEASE in % 20 min [1, 11]: 90.3%
RELEASE in % 30 min [1, 11]: 91.85%
RELEASE in % 45 min [1, 11]: 96.6%
antiglucocorticoid activity [2]: considerably reduced antiglucocorticoid activity
activity at the progesterone receptor [3]: same activity as RU 486
activity in vivo at the progesterone receptor (PR) [4]: both agonistic and also antagonistic activity

CCNC(=O)O/N=C/c1ccc([C@H]2C[C@@]3(C)[C@@H](CC[C@]3(COC)OC)[C@@H]3CCC4=CC(=O)CCC4=C32)cc1 [Micronizate]
RELEASE in % 0 min [1, 12]: 0%
RELEASE in % 10 min [1, 12]: 92.1%
RELEASE in % 20 min [1, 12]: 94.3%
RELEASE in % 30 min [1, 12]: 94.6%
RELEASE in % 45 min [1, 12]: 94.9%
RELEASE in % 0 min [1, 13]: 0%
RELEASE in % 10 min [1, 13]: 92.1%
RELEASE in % 20 min [1, 13]: 94.3%
RELEASE in % 30 min [1, 13]: 94.6%
RELEASE in % 45 min [1, 13]: 94.9%
stability of effective ingredient in medicinal preparations under ICH [5]: not sufficiently stable
